# Measured values published in article PMC6874683, “Pyrrothiogatain acts as an inhibitor of GATA family proteins and inhibits Th2 cell differentiation in vitro” (Scientific Reports, 2019).
# Entries after “also recorded” stand apart in the source; their conditions may differ.
# Tests used:
# [1] = tested on: GATA3 binding to Th2 cytokine gene locus; test: Chromatin immunoprecipitation with anti-GATA3 antibody in Th2 cells; type: cell-based, mouse; conditions: naive CD4+ T cells, Th2 conditions, 80 µM, 2 days
# Description: GATA3 has been reported to bind to Th2 cytokine gene locus, such as IL-4 VA enhancer, IL-4 intron enhancer, conserved Gata3-response element (CGRE)[26] and IL-5 promoter[27] regions in Th2 cells. We investigated whether pyrrothiogatain inhibited GATA3 binding to Th2 cytokine gene locus. Naive CD4^+ T cells were cultured under Th2 conditions in the presence or absence of 80 µM pyrrothiogatain for 2 days, and then the cells were subjected to chromatin immunoprecipitation with an anti-GATA3 antibody.
# The Magna ChIP Chromatin Immunoprecipitation Kit was used for the ChIP assay according to the manufacturer’s protocol (Merck-Millipore). Anti-GATA3 antibody (Cat#AF2605, R&D systems) was used for chromatin immunoprecipitation. The specific primers for the Th2 cytokine gene locus and the Roche Universal probes were used as follows: the VA site in the IL-4 enhancer: 5′-[…]-3′ (forward), 5′-[…]-3′ (reverse), probe #4; IL-4 IE: 5′-[…]-3′ (forward), 5′-AAATCCGAAACTGA GGAGTGC-3′ (reverse), probe #75; CGRE: 5′-CTCTCCTGGTGGCGTGTT-3′ (forward), 5′-CTTTGCGCACCCTTGAAC-3′ (reverse), probe #53; and IL-5p: 5′-[…]-3′ (forward), 5′-[…]-3′ (reverse), probe #43;
# [2] = tested on: OVA-induced allergic mice; test: OVA-induced allergic airway inflammation model; type: in vivo, mouse; conditions: 20 mg/kg intraperitoneally every day from day 0 to 6, versus vehicle control
# Description: C57BL/6 mice at 7 weeks old were immunized intraperitoneally with 100 µg OVA (Cat#A5503, Sigma) in 2 % aluminium hydroxide gel (Cat#vax-alu-250, InvivoGen) on day 0. The mice were challenged intranasally with 100 µg OVA in saline on days 7, 8 and 9. Pyrrothiogatain was administrated intraperitoneally at a concentration of 20 mg/kg in PBS every day from day 0 to 6. The day after the last OVA challenge, BAL fluid cells were subjected to histological examination using the Diff Quick stain (Cat#16920, Sysmex). All animal experiments received approval from the Ehime University Administrative Panel for Animal Care. All animal care was conducted in accordance with the guidelines of Ehime University.
# Th2 cell differentiation = test: Intracellular cytokine staining, total CD4+ T cells under IL-2 conditions; type: cell-based, mouse; conditions: 30 µM, five days
# Description: (§1) C57BL/6 mice were purchased from Clea (Clea Japan, Inc., Tokyo, Japan). Total CD4^+ T cells isolated from mouse spleen were prepared using a FITC anti-mouse CD4 antibody (Cat#100510, RM4–5, BioLegend) and anti-FITC-microbeads (Cat#130-097-050, Miltenyi Biotec). Naive CD4^+ T cells (CD44^low, CD62L^high) were prepared using a MojoSort Mouse CD4 T cell Isolation Kit (Cat#480033), BioLegend). Biotinylated anti-CD44 (Cat#103004, IM7) and anti-CD25 antibodies (Cat#102004, PC61) were purchased from BioLegend. CD4^+ T cells (7.5 × 10^5) were stimulated using immobilized anti-TCR-β mAb (3 µg/mL, H57–597, BioLegend) plus an anti-CD28 mAb (1.0 µg/mL, cat#40–0281, TONBO Biosciences) for 2 days, and then, the cells were further expanded under similar conditions for an additional 3 days. IL-2 conditions: IL-2 (10 ng/mL, Pepro Tech); Th2 conditions: IL-2 (10 ng/mL, Pepro Tech), IL-4 (1 ng/mL, Pepro Tech), and anti-IFN-γ mAb (2.5 µg/mL, cat#40–731, TONBO Biosciences). […]
# The in vitro differentiated CD4^+ T cells were stimulated using an immobilized anti-TCR-β mAb (3 µg/ml, H57–597, BioLegend) for 6 h in the presence of monensin (2 µM). […] Flow cytometry was performed using a Gallios Flow Cytometer instrument (Beckman Coulter) and a FACS Caliber instrument (BD Biosciences) and the results were analysed using the FlowJo software program (Tree Star, Ashland, OR, USA). […]
# [3] = tested on: Th2 cytokine and GATA3 mRNA; test: Quantitative RT-PCR, naive CD4+ T cells under Th2 conditions; type: cell-based, mouse; conditions: 5 days
# Description: as §1, with “Biosciences). Th1 conditions: IL-2 (10 ng/mL, Pepro Tech), IL-12 (1 ng/mL, Pepro Tech), and anti-IL-4 mAb (2.5 µg/mL, cat#40–731, TONBO Biosciences). The cultured cells were subjected to intracellular staining, ELISA assay, and RT-PCR. All animal experiments received approval from the Ehime University Administrative Panel for Animal Care. All animal care was conducted in accordance with the guidelines of Ehime University.” for “Biosciences).”
structure (smiles),measurement,setting,value
"Cc1ccc(C)n1-c1ccsc1C(=O)O [Pyrrothiogatain, 3-(2,5-dimethyl-1H-pyrrol-1-yl)thiophene-2-carboxylic acid]","GATA3 binding to the IL-4 VA enhancer, IL-4 intron enhancer, CGRE and IL-5 promoter regions",[1],repressed
same,Number of inflammatory cells in the bronchoalveolar lavage (BAL) fluid,[2],no significant difference; also recorded: did not significantly decrease
same,"Generation of IL-4-, IL-5-, and IL-13-producing cells",Th2 cell differentiation,repressed
same,Number of Th1 cells producing IFN-γ,Th2 cell differentiation,increased
same,"mRNA expression of IL-4, IL-5 and IL-13 (RT-qPCR)",[3]; 30 and 80 µM,Decreased
same,"Expression of GATA3, mRNA level",[3],not influenced
